Tested on: closed head injury (CHI)
Experiment: Closed head injury (CHI) model, neurological severity score, Sabra mice
Type: in vivo
Conditions: SR144528 1 mg/kg i.p. 1 h after CHI, 24 h to 14 day, vs vehicle control
Method: The study was conducted according to the guidelines of the Institutional Animal Care Committee of the Hebrew University. Male Sabra mice weighing 35 to 50 g were used in all experiments. Animals were kept under controlled light conditions with a 12 h/12 h light/dark cycle. Experimental closed head injury (CHI) was induced using a modified weight drop device developed in our laboratory as described previously (Chen et al., 1996). At 1 h after CHI, the functional status of the mice was evaluated according to a set of 10 neurobehavioral tasks, namely the neurological severity score (NSS). This score is based on the ability of the mice to perform 10 different tasks (Beni-Adani et al., 2001) that evaluate their motor ability, balance, and alertness. One point is given for failing to perform a task. […] A score of 10 reflects maximal neurologic impairment, and a decrease of NSS during the recovery period indicates partial recovery of function.
Data was analyzed using the Prism 4.02 programme (GraphPad Software, San Deigo, Calif., USA). The data are expressed as mean±SEM and statistical significance was assessed with one way analysis of variance (ANOVA) followed by a Dunnett's post-hoc analysis for TNF-α levels. Nonparametric NSS values were compared between the two groups at each time point.
In this study four groups of mice were subjected to CHI (n=10/group and control n=9), after which the following agents were administered: • Group 1 (Control): Vehicle only (ethanol:cremophor:saline at ratio of 1:1:18), 1 h after CHI. • Group 2: HU-910, 0.1 mg/kg, dissolved in vehicle (1:1:18 ethanol:cremophor:saline), i.p. 1 h after CHI. • Group 3: HU-910, 1.0 mg/kg, dissolved in vehicle (1:1:18 ethanol:cremophor:saline), i.p. 1 h after CHI. • Group 4: HU-910, 10.0 mg/kg, dissolved in vehicle (1:1:18 ethanol:cremophor:saline), i.p. 1 h after CHI.
In this study four groups of mice were subjected to CHI (n=9/group), after which the following agents were administered: • Group 1 (Control): Vehicle only (ethanol:cremophor:saline at ratio of 1:1:18), 1 h after CHI. • Group 2: HU-910, 10 mg/kg, dissolved in vehicle (1:1:18 ethanol:cremophor:saline), i.p. 1 h after CHI. • Group 3: Specific CB2 antagonist SR144528 (N-[(1S)-endo-1,3,3-trimethylbicyclo[2.2.1]heptan-2-yl]-5-(4-chloro-3-methylphenyl)-1-(4-methylbenzyl)pyrazole-3 carboxamide), (see M. Rinaldi-Carmona, et al. J. Pharmacol. Exp. Ther. 284 (1998) 644-650), 1 mg/kg, i.p. 1 h after CHI. • Group 4: Specific CB2 antagonist (SR144528, N-[(1S)-endo-1,3,3-trimethylbicyclo[2.2.1]heptan-2-yl]-5-(4-chloro-3-methylphenyl)-1-(4-methylbenzy)pyrazole-3 carboxamide), 1 mg/kg, i.p. 1 h after CHI and HU-910 10 mg/kg administered 10 min after administration of antagonist.
In this study four groups of mice were subjected to CHI (n=7-8/group), after which the following agents were administered: • Group 1 (Control): Vehicle only (Dimethyl Sulfoxide (DMSO): Tween 80: Saline at ratio of 1:1:18), i.p. 1 h after CHI. • Group 2: HU-910, 10 mg/kg, dissolved in Vehicle, i.p. 1 h after CHI. • Group 3: Specific CB2 antagonist/inverse agonist AM630 (6-Iodo-2-methyl-1-[2-(4-morpholinyl)ethyl]-1H-indol-3-yl](4-methoxyphenyl)methanone) (Ross et al. 1999)), dissolved in Vehicle, 1 mg/kg, i.p. 1 h after CHI and HU-910, dissolved in Vehicle, 10 mg/kg administered 10 min after administration of antagonist/inverse agonist. • Group 4: Specific CB2 antagonist/inverse agonist AM630 (6-Iodo-2-methyl-1-[2-(4-morpholinyl)ethyl]-1H-indol-3-yl](4-methoxyphenyl)methanone), dissolved in Vehicle, 1 mg/kg, i.p. 1 h after CHI

## N-[(1S)-endo-1,3,3-trimethylbicyclo[2.2.1]heptan-2-yl]-5-(4-chloro-3-methylphenyl)-1-(4-methylbenzyl)pyrazole-3 carboxamide [SR144528, reference compound]
  extent of recovery ΔNSS, antagonist alone: recovery was significantly reduced

From patent publication US9365534B2, “Arylated camphenes, processes for their preparation and uses thereof” (Yissum Research Development Company of the Hebrew …, priority 2009, dated 2016)
